{
  "source": "patent US6355799B1",
  "about": "“Substituted benzene compounds, process for their preparation, and herbicidal and defoliant compositions containing them” (ISK Americas Incorporated, priority 1997, dated 2002)",
  "type_in_all_cases": "in vivo",
  "key": {"[1]": {"tested_on": "upland rice (Oryza sp., var. Tebonnet, RICE)", "assay": "Post-emerge test, crop safety", "conditions": "rating scale 0-100 (0 no damage, 100 complete death), 14 days after application", "in_short": "(§1)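 Sandy loam pots; pre-emerge: sown 1 d pre-spray, surface-watered after, then bottom-watered. Post-emerge: sown 8–21 d before, 2–3 leaf stage, + 0.25% v/v NIS, bottom-watered. Acetone, 187 l/ha track spray, 15–1000 g ai/ha. 0–100 injury score, day 14.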"}, "[2]": {"tested_on": "field corn (Zea mays L., var. Dekalb 535, CORN)", "assay": "Post-emerge test, crop safety", "conditions": "rating scale 0-100 (0 no damage, 100 complete death), 14 days after application", "in_short": "as §1"}, "[3]": {"tested_on": "velvetleaf (Abutilon theophrasti, ABUTH)", "assay": "Post-emerge test, greenhouse herbicide activity screening", "conditions": "rating scale 0-100 (0 no damage, 100 complete death), 14 days after application", "in_short": "(§2)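 Compounds in acetone were track-sprayed at 15–1000 g ai/ha: pre-emergence onto soil sown the previous day, then top-watered to incorporate and later bottom-watered; post-emergence onto 2–3 leaf plants with 0.25% v/v surfactant, bottom-watered only. Ratings on a 0–100 phytotoxicity scale were taken at day 14.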"}, "[4]": {"tested_on": "large crabgrass (Digitaria sanguinalis, DIGSA)", "assay": "Post-emerge test, greenhouse herbicide activity screening", "conditions": "rating scale 0-100 (0 no damage, 100 complete death), 14 days after application", "in_short": "as §2"}, "[5]": {"tested_on": "lambsquarters (Chenopodium album, CHEAL)", "assay": "Post-emerge test, greenhouse herbicide activity screening", "conditions": "rating scale 0-100 (0 no damage, 100 complete death), 14 days after application", "in_short": "as §2"}, "[6]": {"tested_on": "sicklepod (Cassia obtusifolia, CASOB)", "assay": "Post-emerge test, greenhouse herbicide activity screening", "conditions": "rating scale 0-100 (0 no damage, 100 complete death), 14 days after application", "in_short": "as §2"}, "[7]": {"tested_on": "barnyardgrass (Echinochloa crus-galli, ECHCG)", "assay": "Post-emerge test, greenhouse herbicide activity screening", "conditions": "rating scale 0-100 (0 no damage, 100 complete death), 14 days after application", "in_short": "as §2"}, "[8]": {"tested_on": "johnsongrass (Sorghum halepense, SORHA)", "assay": "Post-emerge test, greenhouse herbicide activity screening", "conditions": "rating scale 0-100 (0 no damage, 100 complete death), 14 days after application", "in_short": "as §2"}, "[9]": {"tested_on": "green foxtail (Setaria viridis, SETVI)", "assay": "Post-emerge test, greenhouse herbicide activity screening", "conditions": "rating scale 0-100 (0 no damage, 100 complete death), 14 days after application", "in_short": "as §2"}, "[10]": {"tested_on": "redroot pigweed (Amaranthus retroflexus, AMARE)", "assay": "Post-emerge test, greenhouse herbicide activity screening", "conditions": "rating scale 0-100 (0 no damage, 100 complete death), 14 days after application", "in_short": "as §2"}, "[11]": {"tested_on": "ivyleaf morningglory (Ipomoea hederacea, IPOHE)", "assay": "Post-emerge test, greenhouse herbicide activity screening", "conditions": "rating scale 0-100 (0 no damage, 100 complete death), 14 days after application", "in_short": "as §2"}, "[12]": {"tested_on": "redroot pigweed (Amaranthus retroflexus, AMARE)", "assay": "Pre-emerge test, greenhouse herbicide activity screening", "conditions": "rating scale 0-100, 14 days after application", "in_short": "as §1"}, "[13]": {"tested_on": "upland rice (Oryza sp., var. Tebonnet, RICE)", "assay": "Pre-emerge test, crop safety", "conditions": "rating scale 0-100, 14 days after application", "in_short": "as §1"}, "[14]": {"tested_on": "field corn (Zea mays L., var. Dekalb 535, CORN)", "assay": "Pre-emerge test, crop safety", "conditions": "rating scale 0-100, 14 days after application", "in_short": "as §1"}, "[15]": {"tested_on": "velvetleaf (Abutilon theophrasti, ABUTH)", "assay": "Pre-emerge test, greenhouse herbicide activity screening", "conditions": "rating scale 0-100, 14 days after application", "in_short": "as §1"}, "[16]": {"tested_on": "large crabgrass (Digitaria sanguinalis, DIGSA)", "assay": "Pre-emerge test, greenhouse herbicide activity screening", "conditions": "rating scale 0-100, 14 days after application", "in_short": "as §1"}, "[17]": {"tested_on": "lambsquarters (Chenopodium album, CHEAL)", "assay": "Pre-emerge test, greenhouse herbicide activity screening", "conditions": "rating scale 0-100, 14 days after application", "in_short": "as §1"}, "[18]": {"tested_on": "sicklepod (Cassia obtusifolia, CASOB)", "assay": "Pre-emerge test, greenhouse herbicide activity screening", "conditions": "rating scale 0-100, 14 days after application", "in_short": "as §1"}, "[19]": {"tested_on": "barnyardgrass (Echinochloa crus-galli, ECHCG)", "assay": "Pre-emerge test, greenhouse herbicide activity screening", "conditions": "rating scale 0-100, 14 days after application", "in_short": "as §1"}, "[20]": {"tested_on": "johnsongrass (Sorghum halepense, SORHA)", "assay": "Pre-emerge test, greenhouse herbicide activity screening", "conditions": "rating scale 0-100, 14 days after application", "in_short": "as §1"}, "[21]": {"tested_on": "green foxtail (Setaria viridis, SETVI)", "assay": "Pre-emerge test, greenhouse herbicide activity screening", "conditions": "rating scale 0-100, 14 days after application", "in_short": "as §1"}, "[22]": {"tested_on": "ivyleaf morningglory (Ipomoea hederacea, IPOHE)", "assay": "Pre-emerge test, greenhouse herbicide activity screening", "conditions": "rating scale 0-100, 14 days after application", "in_short": "as §1"}},
  "data": [
    {"smiles": "COc1c(Cl)cc(F)c(-n2c(=O)cc(C(F)(F)F)n(C)c2=O)c1CC(Cl)C(=O)OCCOc1ccccc1", "note": "(single isomer, unassigned) [14-27]", "values": [
      {"measurement": "Post-emerge phytotoxicity rating RICE (crop damage)", "setting": "[1]; Rate 63 g ai/ha", "value": 0},
      {"measurement": "Post-emerge phytotoxicity rating RICE (crop damage)", "setting": "[1]; Rate 250 g ai/ha", "value": 0},
      {"measurement": "Post-emerge phytotoxicity rating CORN (crop damage)", "setting": "[2]; Rate 63 g ai/ha", "value": 5},
      {"measurement": "Post-emerge phytotoxicity rating CORN (crop damage)", "setting": "[2]; Rate 250 g ai/ha", "value": 10},
      {"measurement": "Post-emerge Herbicidal Activity, phytotoxicity rating ABUTH", "setting": "[3]; Rate 63 g ai/ha", "value": 70},
      {"measurement": "Post-emerge Herbicidal Activity, phytotoxicity rating ABUTH", "setting": "[3]; Rate 250 g ai/ha", "value": 80},
      {"measurement": "Post-emerge Herbicidal Activity, phytotoxicity rating DIGSA", "setting": "[4]; Rate 63 g ai/ha", "value": 70},
      {"measurement": "Post-emerge Herbicidal Activity, phytotoxicity rating DIGSA", "setting": "[4]; Rate 250 g ai/ha", "value": 95},
      {"measurement": "Post-emerge Herbicidal Activity, phytotoxicity rating CHEAL", "setting": "[5]; Rate 63 g ai/ha", "value": 90},
      {"measurement": "Post-emerge Herbicidal Activity, phytotoxicity rating CHEAL", "setting": "[5]; Rate 250 g ai/ha", "value": 100},
      {"measurement": "Post-emerge Herbicidal Activity, phytotoxicity rating CASOB", "setting": "[6]; Rate 63 g ai/ha", "value": 50},
      {"measurement": "Post-emerge Herbicidal Activity, phytotoxicity rating CASOB", "setting": "[6]; Rate 250 g ai/ha", "value": 30},
      {"measurement": "Post-emerge Herbicidal Activity, phytotoxicity rating ECHCG", "setting": "[7]; Rate 63 g ai/ha", "value": 99},
      {"measurement": "Post-emerge Herbicidal Activity, phytotoxicity rating ECHCG", "setting": "[7]; Rate 250 g ai/ha", "value": 100},
      {"measurement": "Post-emerge Herbicidal Activity, phytotoxicity rating SORHA", "setting": "[8]; Rate 63 g ai/ha", "value": 0},
      {"measurement": "Post-emerge Herbicidal Activity, phytotoxicity rating SORHA", "setting": "[8]; Rate 250 g ai/ha", "value": 10},
      {"measurement": "Post-emerge Herbicidal Activity, phytotoxicity rating SETVI", "setting": "[9]; Rate 63 g ai/ha", "value": 0},
      {"measurement": "Post-emerge Herbicidal Activity, phytotoxicity rating SETVI", "setting": "[9]; Rate 250 g ai/ha", "value": 20},
      {"measurement": "Post-emerge Herbicidal Activity, phytotoxicity rating AMARE", "setting": "[10]; Rate 63 g ai/ha", "value": 50},
      {"measurement": "Post-emerge Herbicidal Activity, phytotoxicity rating AMARE", "setting": "[10]; Rate 250 g ai/ha", "value": 90},
      {"measurement": "Post-emerge Herbicidal Activity, phytotoxicity rating IPOHE", "setting": "[11]; Rate 63 g ai/ha", "value": 70},
      {"measurement": "Post-emerge Herbicidal Activity, phytotoxicity rating IPOHE", "setting": "[11]; Rate 250 g ai/ha", "value": 50},
      {"measurement": "Pre-emerge herbicidal activity, phytotoxicity rating AMARE", "setting": "[12]; 63 g ai/ha", "value": 50},
      {"measurement": "Pre-emerge herbicidal activity, phytotoxicity rating AMARE", "setting": "[12]; 250 g ai/ha", "value": 100},
      {"measurement": "Pre-emerge phytotoxicity rating, crop damage RICE", "setting": "[13]; 63 g ai/ha", "value": 0},
      {"measurement": "Pre-emerge phytotoxicity rating, crop damage RICE", "setting": "[13]; 250 g ai/ha", "value": 0},
      {"measurement": "Pre-emerge phytotoxicity rating, crop damage CORN", "setting": "[14]; 63 g ai/ha", "value": 0},
      {"measurement": "Pre-emerge phytotoxicity rating, crop damage CORN", "setting": "[14]; 250 g ai/ha", "value": 0},
      {"measurement": "Pre-emerge herbicidal activity, phytotoxicity rating ABUTH", "setting": "[15]; 63 g ai/ha", "value": 0},
      {"measurement": "Pre-emerge herbicidal activity, phytotoxicity rating ABUTH", "setting": "[15]; 250 g ai/ha", "value": 30},
      {"measurement": "Pre-emerge herbicidal activity, phytotoxicity rating DIGSA", "setting": "[16]; 63 g ai/ha", "value": 0},
      {"measurement": "Pre-emerge herbicidal activity, phytotoxicity rating DIGSA", "setting": "[16]; 250 g ai/ha", "value": 90},
      {"measurement": "Pre-emerge herbicidal activity, phytotoxicity rating CHEAL", "setting": "[17]; 63 g ai/ha", "value": 0},
      {"measurement": "Pre-emerge herbicidal activity, phytotoxicity rating CHEAL", "setting": "[17]; 250 g ai/ha", "value": 90},
      {"measurement": "Pre-emerge herbicidal activity, phytotoxicity rating CASOB", "setting": "[18]; 63 g ai/ha", "value": 0},
      {"measurement": "Pre-emerge herbicidal activity, phytotoxicity rating CASOB", "setting": "[18]; 250 g ai/ha", "value": 0},
      {"measurement": "Pre-emerge herbicidal activity, phytotoxicity rating ECHCG", "setting": "[19]; 63 g ai/ha", "value": 0},
      {"measurement": "Pre-emerge herbicidal activity, phytotoxicity rating ECHCG", "setting": "[19]; 250 g ai/ha", "value": 0},
      {"measurement": "Pre-emerge herbicidal activity, phytotoxicity rating SORHA", "setting": "[20]; 63 g ai/ha", "value": 0},
      {"measurement": "Pre-emerge herbicidal activity, phytotoxicity rating SORHA", "setting": "[20]; 250 g ai/ha", "value": 0},
      {"measurement": "Pre-emerge herbicidal activity, phytotoxicity rating SETVI", "setting": "[21]; 63 g ai/ha", "value": 0},
      {"measurement": "Pre-emerge herbicidal activity, phytotoxicity rating SETVI", "setting": "[21]; 250 g ai/ha", "value": 0},
      {"measurement": "Pre-emerge herbicidal activity, phytotoxicity rating IPOHE", "setting": "[22]; 63 g ai/ha", "value": 0},
      {"measurement": "Pre-emerge herbicidal activity, phytotoxicity rating IPOHE", "setting": "[22]; 250 g ai/ha", "value": 0}
    ]}
  ]
}
